Legend:
C. albicans [1] = experiment: ROS accumulation, DCFDA; format: cell-based, Candida albicans
Method: (§1) All cultures were incubated for 6 h and then labeled with 20 µM DCFDA in PBS for 30 min. Labeled cultures were transferred into a microplate, and fluorescence intensity was measured using a CLARIOstar plate reader (BMG Labtech).

A. fumigatus = experiment: membrane permeabilization, nucleic acid leakage; format: cell-based, Aspergillus fumigatus
Method: Membrane permeabilization was determined by measuring the leakage of nucleic acid into the supernatant ([19]). […] Suspensions were incubated at 30°C with shaking at 200 rpm for 6 h, then passed through a 0.45 µm syringe filter. The A260 of each filtrate was measured with a DS-11 FX +benchtop spectrophotometer (DeNovix).

C. neoformans = experiment: ROS accumulation, DCFDA; format: cell-based, Cryptococcus neoformans
Method: as §1

C. albicans [2] = experiment: membrane fluidity, TMA-DPH anisotropy; format: cell-based, Candida albicans
Method: Candida albicans cells were incubated for 6 h, and C. neoformans cells were incubated for 9 h at 30°C, washed, then labeled with 2 µM TMA-DPH in PBS for 10 min. […] Mycelia were fixed, and protoplasts were prepared as described previously ([50]). Protoplasts were washed twice and labeled with 2 µM TMA-DPH in PBS for 30 min. For all labeled cultures, parallel and perpendicular fluorescence intensities were measured at 440 nm in a CLARIOstar plate reader (BMG Labtech), and anisotropy was calculated.

C. albicans infection = experiment: Galleria mellonella survival assay; format: in vivo
Method: Galleria mellonella larvae were reared and prepared as described previously ([53]). Larvae (n = 12 per treatment) were each inoculated with 10^5 spores or cells of A. fumigatus, C. albicans, or C. neoformans in 10 µL of PBS. […] Treated larvae were incubated at 37°C, and mortality was evaluated every day for 10 days.

CCCCCCCCCCn1cc[n+](CC(O)(P(=O)(O)O)P(=O)(O)O)c1 [10-ZOL, Decyl-zoledronate]
concentration at which ROS (DCFDA fluorescence) increase became significant (C. albicans [1]): 2 × MIC | concentration giving significant increase in leaked nucleic acid (A. fumigatus): ≥ 1 × MIC | concentration at which ROS (DCFDA fluorescence) increase became significant (C. neoformans): 2 × MIC | concentration from which anisotropy differs significantly from no-drug control (C. albicans [2]): 0.5 × MIC | survival compared with […] AMB (C. albicans infection; 64 µg/mL): outperformed AMB | larval mortality vs no-drug control (C. albicans infection; single infusion of 64 µg/mL): significantly reduced mortality

Reference: PMC12892976, “Alkylation-based optimization of antifungal FPPS inhibitors yields a potent, broad-spectrum lipophilic zoledronate derivative” (mBio, 2025)
